Drawing on US20160122342A1, “ENHANCER OF ZESTE HOMOLOG 2 INHIBITORS” (GLAXOSMITHKLINE INTELLECTUAL PROPERTY (NO.2) LIMITED, priority 2013, published 2016), this text covers IC50 for 19 compounds.

In the assay the target is T1, EZH2 within the PRC2 complex (Homo sapiens, UniProt Q15910).
T1 construct: FLAG; made in house; host or cells: Sf9 cells
T1 sequence (Q15910 whole entry): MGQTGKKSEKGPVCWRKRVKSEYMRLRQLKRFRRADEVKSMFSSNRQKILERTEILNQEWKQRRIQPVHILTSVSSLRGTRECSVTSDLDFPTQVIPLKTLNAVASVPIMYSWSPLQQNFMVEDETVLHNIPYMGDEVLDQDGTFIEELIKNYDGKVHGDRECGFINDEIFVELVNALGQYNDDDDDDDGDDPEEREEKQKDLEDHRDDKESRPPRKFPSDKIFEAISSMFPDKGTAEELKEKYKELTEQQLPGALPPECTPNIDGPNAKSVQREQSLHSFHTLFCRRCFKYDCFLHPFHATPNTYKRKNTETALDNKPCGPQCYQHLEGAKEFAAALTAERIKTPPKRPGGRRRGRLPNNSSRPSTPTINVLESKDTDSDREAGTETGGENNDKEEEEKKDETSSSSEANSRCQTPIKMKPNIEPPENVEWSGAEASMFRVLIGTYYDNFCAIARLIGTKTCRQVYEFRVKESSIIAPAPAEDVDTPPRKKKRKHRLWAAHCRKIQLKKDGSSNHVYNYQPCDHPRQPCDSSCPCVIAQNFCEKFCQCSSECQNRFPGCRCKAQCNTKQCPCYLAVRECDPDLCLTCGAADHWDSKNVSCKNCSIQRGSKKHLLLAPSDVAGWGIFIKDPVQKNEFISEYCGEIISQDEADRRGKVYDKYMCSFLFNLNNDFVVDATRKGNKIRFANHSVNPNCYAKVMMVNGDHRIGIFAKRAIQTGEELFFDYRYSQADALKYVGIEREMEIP
T1 sequence (O75530 whole entry partner): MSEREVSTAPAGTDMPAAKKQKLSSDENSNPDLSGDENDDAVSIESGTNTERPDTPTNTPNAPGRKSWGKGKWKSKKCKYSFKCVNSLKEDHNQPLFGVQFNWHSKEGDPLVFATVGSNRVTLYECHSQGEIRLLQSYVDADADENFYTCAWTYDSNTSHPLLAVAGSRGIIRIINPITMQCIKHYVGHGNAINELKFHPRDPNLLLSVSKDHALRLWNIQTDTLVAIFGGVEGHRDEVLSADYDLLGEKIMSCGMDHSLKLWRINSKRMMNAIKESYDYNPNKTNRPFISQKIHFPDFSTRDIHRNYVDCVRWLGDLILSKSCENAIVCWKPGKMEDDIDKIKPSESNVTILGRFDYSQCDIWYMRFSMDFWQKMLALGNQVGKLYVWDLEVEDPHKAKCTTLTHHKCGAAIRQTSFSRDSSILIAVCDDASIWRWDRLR
T1 sequence (Q15022 whole entry partner): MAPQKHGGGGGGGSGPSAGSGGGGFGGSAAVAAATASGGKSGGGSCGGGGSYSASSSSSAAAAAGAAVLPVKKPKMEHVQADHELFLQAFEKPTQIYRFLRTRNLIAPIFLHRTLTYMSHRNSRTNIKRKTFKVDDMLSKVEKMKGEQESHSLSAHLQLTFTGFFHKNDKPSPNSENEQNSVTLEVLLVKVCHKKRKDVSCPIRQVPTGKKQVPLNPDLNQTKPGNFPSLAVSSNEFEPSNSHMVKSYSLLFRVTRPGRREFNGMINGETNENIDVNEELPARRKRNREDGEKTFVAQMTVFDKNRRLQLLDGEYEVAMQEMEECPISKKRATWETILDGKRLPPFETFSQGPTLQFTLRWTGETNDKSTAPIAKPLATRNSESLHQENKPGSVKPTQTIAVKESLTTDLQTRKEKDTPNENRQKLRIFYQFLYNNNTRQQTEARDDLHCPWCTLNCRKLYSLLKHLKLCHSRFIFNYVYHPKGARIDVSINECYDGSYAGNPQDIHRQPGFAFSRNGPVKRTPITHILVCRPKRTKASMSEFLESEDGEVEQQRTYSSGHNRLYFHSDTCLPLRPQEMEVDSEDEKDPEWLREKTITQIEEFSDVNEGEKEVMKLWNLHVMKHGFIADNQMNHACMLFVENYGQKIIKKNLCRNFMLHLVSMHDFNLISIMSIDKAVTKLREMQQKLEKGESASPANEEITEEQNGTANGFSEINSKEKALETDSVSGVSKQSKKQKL
T1 sequence (Q09028 whole entry partner): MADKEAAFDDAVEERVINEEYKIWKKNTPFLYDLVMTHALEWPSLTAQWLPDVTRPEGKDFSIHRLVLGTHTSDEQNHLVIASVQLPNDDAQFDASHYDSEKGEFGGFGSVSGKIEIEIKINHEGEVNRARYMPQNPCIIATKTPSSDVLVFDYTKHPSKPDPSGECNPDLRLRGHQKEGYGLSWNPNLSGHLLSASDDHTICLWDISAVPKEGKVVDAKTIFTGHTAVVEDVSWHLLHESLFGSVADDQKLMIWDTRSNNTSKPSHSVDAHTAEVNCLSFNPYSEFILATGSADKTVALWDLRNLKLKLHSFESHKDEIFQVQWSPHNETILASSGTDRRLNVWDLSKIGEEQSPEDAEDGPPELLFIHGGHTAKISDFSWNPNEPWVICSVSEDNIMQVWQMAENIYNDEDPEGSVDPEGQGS
T1 sequence (Q6ZN18 whole entry partner): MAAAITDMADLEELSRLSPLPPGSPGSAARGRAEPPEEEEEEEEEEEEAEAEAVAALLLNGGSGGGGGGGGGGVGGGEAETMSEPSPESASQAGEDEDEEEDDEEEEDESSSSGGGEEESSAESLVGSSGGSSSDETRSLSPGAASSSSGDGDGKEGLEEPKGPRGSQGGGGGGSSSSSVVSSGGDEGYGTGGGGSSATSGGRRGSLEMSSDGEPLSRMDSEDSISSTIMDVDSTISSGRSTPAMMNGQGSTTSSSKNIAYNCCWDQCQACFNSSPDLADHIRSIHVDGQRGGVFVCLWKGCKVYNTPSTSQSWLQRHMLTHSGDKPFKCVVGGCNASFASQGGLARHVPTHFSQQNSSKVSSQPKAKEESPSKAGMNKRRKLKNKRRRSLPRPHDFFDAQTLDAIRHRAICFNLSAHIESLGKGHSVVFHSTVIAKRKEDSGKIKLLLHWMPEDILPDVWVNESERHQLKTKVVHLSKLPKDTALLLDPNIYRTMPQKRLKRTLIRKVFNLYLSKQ
In words: Assay Protocol 2: EZH2 methyltransferase scintillation proximity assay, biotinylated histone H3 peptide substrate. The format is biochemical. As to conditions: SPA, 3H-SAM, biotinylated unmethylated histone H3K27 peptide substrate, 5-member PRC2 complex. Here is the method:
Compounds contained herein were evaluated for their ability to inhibit the methyltransferase activity of EZH2 within the PRC2 complex. […] The peptides were captured on streptavidin-coated SPA beads and the resulting signal was read on a ViewLux plate reader. • 4. Prepare 10 mM stock of compounds from solid in 100% DMSO. • 5. […] Dispense 10 nL of compound from the dilution plate into reaction plates (Corning, 384-well polystyrene NBS, Cat#3673). Prepare the following solutions: • 7. 1× Base Buffer, 50 mM Tris-HCl, pH 8, 2 mM MgCl2: Per 1 L of base buffer, combine 1 M Tris-HCl, pH 8 (50 mL), 1 M MgCl2 (2 mL), and distilled water (948 mL). • 8. 1× Assay Buffer: Per 10 mL of 1× Assay Buffer, combine 1× Base Buffer (9.96 mL), 1 M DTT (40 uL), and 10% Tween-20 (1 uL) to provide a final concentration of 50 mM Tris-HCl, pH 8, 2 mM MgCl2, 4 mM DTT, 0.001% Tween-20. • 9. 2× Enzyme Solution: […] SPA Bead Solution: Per 1 mL of SPA Bead Solution, combine Streptavidin coated SPA beads (PerkinElmer, Cat# RPNQ0261, 40 mg) and 1× Assay Buffer (1 mL) to provide a working concentration of 40 mg/mL. • 11. 2× Substrate Solution: Per 10 mL of 2× Substrate Solution, combine 40 mg/mL SPA Bead Solution (375 uL), 1 mM biotinylated histone H3K27 peptide (200 uL), 12.5 uM 3H-SAM (240 uL; 1 mCi/mL), 1 mM cold SAM (57 uL), and 1× Assay Buffer (9.13 mL) to provide a final concentration of 0.75 mg/mL SPA Bead Solution, 10 uM biotinylated histone H3K27 peptide, 0.15 uM 3H-SAM (˜12 uCi/mL 3H-SAM), and 2.85 uM cold SAM. • 12. 2.67× Quench Solution: Per 10 mL of 2.67× Quench Solution, combine 1× Assay Buffer (9.73 mL) and 10 mM cold SAM (267 uL) to provide a final concentration of 100 uM cold SAM. • 3. […] Dispense 5 uL/well of 1× Assay Buffer to column 18 (low control reactions). • 11. Dispense 5 uL/well of 2× Substrate Solution to columns 1-24 (note: substrate solution should be mixed to ensure homogeneous bead suspension before dispensing into matrix reservoir). • 12. Dispense 5 uL/well of 2× Enzyme Solution to columns 1-17, 19-24. • 13. Incubate the reaction for 60 min at room temperature. • 5. Dispense 6 uL/well of the 2.67× Quench Solution to columns 1-24. • 6. Seal assay plates and spin for ˜1 min at 500 rpm. • 7. Dark adapt plates in the ViewLux instrument for 15-60 min. • 2. Read the assay plates on the Viewlux Plate Reader utilizing the 613 nm emission filter or clear filter (300 s exposure). Reagent addition can be done manually or with automated liquid handler. Percent inhibition was calculated relative to the DMSO control for each compound concentration and the resulting values were fit using standard IC50 fitting parameters within the ABASE data fitting software package.
Regarding `CCN(c1cccc2c1C/C=C/CCc1cc(C)[nH]c(=O)c1CNC2=O)C1CCC2(CC1)CNC2` [Example 66, (E)-10-(ethyl(2-azaspiro[3.5]nonan-7-yl)amino)-3-methyl-5,6,15,16-tetrahydrobenzo[c]pyrido[4,3-j][1]azacyclododecine-1,14(2H,9H)-dione], the half-inhibitory concentration (IC50) (commonly the concentration needed to halve the response being measured) turned out to be 251 nM.
The same measure for `CCN(c1cccc2c1C/C=C/CCc1cc(C)[nH]c(=O)c1CNC2=O)[C@H]1CC[C@@H](N2CCOCC2)CC1` [Example 86, (E)-10-(ethyl(cis-4-morpholinocyclohexyl)amino)-3-methyl-5,6,15,16-tetrahydrobenzo[c]pyrido[4,3-j][1]azacyclododecine-1,14(2H,9H)-dione]: 200 nM; for `CCN(c1cccc2c1C/C=C/CCc1cc(C)[nH]c(=O)c1CNC2=O)[C@H]1CC[C@H](N2CCOCC2)CC1` [Example 50, (E)-10-(ethyl(trans-4-morpholinocyclohexyl)amino)-3-methyl-5,6,15,16-tetrahydrobenzo[c]pyrido[4,3-j][1]azacyclododecine-1,14(2H,9H)-dione]: 126 nM; for `CCN(c1cccc2c1C/C=C/CCc1cc(C)[nH]c(=O)c1CNC2=O)C1CCN(Cc2cccc(C)n2)CC1` [Example 48, (E)-10-(ethyl(1-((6-methylpyridin-2-yl)methyl)piperidin-4-yl)amino)-3-methyl-5,6,15,16-tetrahydrobenzo[c]pyrido[4,3-j][1]azacyclododecine-1,14(2H,9H)-dione]: 316 nM.
Next, `CCN(c1cccc2c1C/C=C/CCc1cc(C)[nH]c(=O)c1CNC2=O)C1CCN(CC(F)(F)F)CC1` [Example 47, (E)-10-(ethyl(1-(2,2,2-trifluoroethyl)piperidin-4-yl)amino)-3-methyl-5,6,15,16-tetrahydrobenzo[c]pyrido[4,3-j][1]azacyclododecine-1,14(2H,9H)-dione]: 200 nM; `CCN1CCC(N(CC)c2cccc3c2C/C=C/CCc2cc(C)[nH]c(=O)c2CNC3=O)CC1` [Example 44, (E)-10-(ethyl(1-ethylpiperidin-4-yl)amino)-3-methyl-5,6,15,16-tetrahydrobenzo[c]pyrido[4,3-j][1]azacyclododecine-1,14(2H,9H)-dione]: 79 nM.
Next, `CCN(c1cccc2c1C/C=C/CCc1cc(C)[nH]c(=O)c1CNC2=O)[C@H]1CC[C@H](N(C)CC(F)(F)F)CC1` [Example 59, (E)-10-(ethyl(trans-4-(methyl(2,2,2-trifluoroethyl)amino)cyclohexyl)amino)-3-methyl-5,6,15,16-tetrahydrobenzo[c]pyrido[4,3-j][1]azacyclododecine-1,14(2H,9H)-dione]: 316 nM; `CCN(c1cccc2c1CCCCc1cc(C)[nH]c(=O)c1CNC2=O)[C@H]1CC[C@H](N(C)C)CC1` [Example 62, 9-((trans-4-(dimethylamino)cyclohexyl)(ethyl)amino)-3-methyl-5,6,7,8,14,15-hexahydro-1H-benzo[c]pyrido[4,3-i][1]azacycloundecine-1,13(2H)-dione]: 251 nM.
As for `CCN(c1cccc2c1C/C=C/CCc1cc(C)[nH]c(=O)c1CNC2=O)C1CC2(CCNCC2)C1` [Example 68, (E)-10-(ethyl(7-azaspiro[3.5]nonan-2-yl)amino)-3-methyl-5,6,15,16-tetrahydrobenzo[c]pyrido[4,3-j][1]azacyclododecine-1,14(2H,9H)-dione], the 50% inhibitory concentration (IC50) came out at 126 nM.
Next, `CCN(c1cccc2c1C/C=C/CCc1cc(C)[nH]c(=O)c1CNC2=O)[C@H]1CC[C@@H](N2CC(F)(F)C2)CC1` [Example 80, (E)-10-((cis-4-(3,3-difluoroazetidin-1-yl)cyclohexyl)(ethyl)amino)-3-methyl-5,6,15,16-tetrahydrobenzo[c]pyrido[4,3-j][1]azacyclododecine-1,14(2H,9H)-dione]: 200 nM; `CCN(c1cccc2c1C/C=C/CCc1cc(C)[nH]c(=O)c1CNC2=O)[C@H]1CC[C@@H](NCCC(F)(F)F)CC1` [Example 82, (E)-10-(ethyl(cis-4-((3,3,3-trifluoropropyl)amino)cyclohexyl)amino)-3-methyl-5,6,15,16-tetrahydrobenzo[c]pyrido[4,3-j][1]azacyclododecine-1,14(2H,9H)-dione]: 251 nM; `CCN(c1cccc2c1C/C=C/CCc1cc(C)[nH]c(=O)c1CNC2=O)[C@H]1CC[C@@H](N(C)C)CC1` [Example 55, (E)-10-((cis-4-(dimethylamino)cyclohexyl)(ethyl)amino)-3-methyl-5,6,15,16-tetrahydrobenzo[c]pyrido[4,3-j][1]azacyclododecine-1,14(2H,9H)-dione]: 251 nM.
Next, `CCN(c1cccc2c1C/C=C/CCc1cc(C)[nH]c(=O)c1CNC2=O)C1CC2(C1)CN(C)C2` [Example 72, (E)-10-(ethyl(2-methyl-2-azaspiro[3.3]heptan-6-yl)amino)-3-methyl-5,6,15,16-tetrahydrobenzo[c]pyrido[4,3-j][1]azacyclododecine-1,14(2H,9H)-dione]: 79 nM.
Next, `CCN(c1cccc2c1C/C=C/CCCc1cc(C)[nH]c(=O)c1CNC2=O)[C@H]1CC[C@H](N(C)C)CC1` [Example 53, (E)-11-((trans-4-(dimethylamino)cyclohexyl)(ethyl)amino)-3-methyl-5,6,7,10,16,17-hexahydro-1H-benzo[c]pyrido[4,3-k][1]azacyclotridecine-1,15(2H)-dione]: 79 nM; `CCOC(=O)C(C)(C)N1CCC(N(CC)c2cccc3c2C/C=C/CCc2cc(C)[nH]c(=O)c2CNC3=O)CC1` [Example 46, (E)-ethyl 2-(4-(ethyl(3-methyl-1,14-dioxo-1,2,5,6,9,14,15,16-octahydrobenzo[c]pyrido[4,3-j][1]azacyclododecin-10-yl)amino)piperidin-1-yl)-2-methylpropanoate]: 251 nM.
Turning to `CCN(c1cccc2c1C/C=C\Cc1cc(C)[nH]c(=O)c1CNC2=O)[C@H]1CC[C@H](N(C)C)CC1` [Example 61, (Z)-9-((trans-4-(dimethylamino)cyclohexyl)(ethyl)amino)-3-methyl-5,8,14,15-tetrahydro-1H-benzo[c]pyrido[4,3-i][1]azacycloundecine-1,13(2H)-dione], inhibition was half-maximal at 158 nM (IC50).
Next, `CCN(c1cccc2c1C/C=C/CCc1cc(C)[nH]c(=O)c1CNC2=O)[C@H]1CC[C@@H](O)CC1` [Example 78, (E)-10-(ethyl(cis-4-hydroxycyclohexyl)amino)-3-methyl-5,6,15,16-tetrahydrobenzo[c]pyrido[4,3-j][1]azacyclododecine-1,14(2H,9H)-dione]: 158 nM.
Next, `CCN(c1cccc2c1C/C=C/CCc1cc(C)[nH]c(=O)c1CNC2=O)[C@H]1CC[C@H](N2CC(F)C2)CC1` [Example 76, (E)-10-(ethyl(trans-4-(3-fluoroazetidin-1-yl)cyclohexyl)amino)-3-methyl-5,6,15,16-tetrahydrobenzo[c]pyrido[4,3-j][1]azacyclododecine-1,14(2H,9H)-dione]: 126 nM; `CCN(c1cccc2c1C/C=C/CCc1cc(C)[nH]c(=O)c1CNC2=O)C1CCN(Cc2ccn(C)n2)CC1` [Example 45]: 50 nM.
